Assay results: patent US7674810B2, “1,1-dioxo-1H-1Λ6-benzo[d]isothiazol-3-yl)-4-hydroxy-1,5-dihydro-pyrrol-2-one inhibitors of HCV polymerase” (Roche Palo Alto LLC, priority 2006, dated 2010)

Assays:
HCV NS5B570n-BK = molecular target: T1, HCV NS5B570n-BK (Hepatitis C virus genotype 1b, UniProt P26663); assay: HCV NS5B RNA Polymerase Activity; type: biochemical, HCV BK strain; conditions: poly A:oligo U16, tritiated UTP, 2 h at 30° C.
T1 construct: histidine tag (N); made in house; host or cells: E. coli strain M15
T1 sequence (P26663 2421-2999): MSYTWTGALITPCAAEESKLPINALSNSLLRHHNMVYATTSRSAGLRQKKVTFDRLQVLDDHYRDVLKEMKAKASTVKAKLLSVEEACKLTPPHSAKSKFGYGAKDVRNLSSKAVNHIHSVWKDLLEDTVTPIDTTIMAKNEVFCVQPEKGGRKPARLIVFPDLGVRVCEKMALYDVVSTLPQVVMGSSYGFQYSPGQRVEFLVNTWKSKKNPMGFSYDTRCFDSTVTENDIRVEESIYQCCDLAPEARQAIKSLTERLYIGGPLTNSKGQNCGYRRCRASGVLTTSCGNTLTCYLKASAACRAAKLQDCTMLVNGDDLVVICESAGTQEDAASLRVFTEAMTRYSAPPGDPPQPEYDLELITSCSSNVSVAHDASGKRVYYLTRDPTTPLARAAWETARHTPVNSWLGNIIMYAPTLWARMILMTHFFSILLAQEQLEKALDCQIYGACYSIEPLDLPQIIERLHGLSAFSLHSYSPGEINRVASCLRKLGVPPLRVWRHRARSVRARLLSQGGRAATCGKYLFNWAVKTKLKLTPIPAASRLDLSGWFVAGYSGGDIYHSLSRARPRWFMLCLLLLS
Experimental: The enzymatic activity of HCV NS5B570n-BK is measured as incorporation of radiolabeled nucleotide monophosphates into acid insoluble RNA products. Unincorporated radiolabel substrate is removed by filtration and scintillant is added to the washed and dried filter plate containing radiolabeled RNA product. The light emitted by the scintillant is proportional to the amount of RNA product generated by NS5B570n-BK at the endpoint of the reaction.
The N-terminally histidine tagged HCV polymerase, derived from HCV BK strain, genotype 1b (NS5B570n-BK) contains a 21 amino acid deletion at the C-terminus relative to the full-length HCV polymerase and is purified from E. coli strain M15. The construct containing the coding sequence of HCV BK strain amino acid residues 2421-2999 (GenBank accession number M58335) downstream of a Taq promoter expression cassette was inserted into plasmid constructs. The plasmid constructs are transformed in E. coli and colonies are inoculated and grown overnight in 10 L of Terrific broth (Tartoff and Hobbs) supplemented with 100 μg/mL ampicillin at 37° C. Protein expression is induced by addition of 1 mM isopropyl-β-D -thiogalactopyranoside (IPTG), when optical densities reaches between 1.5 and 3.5 OD600 and the culture is then incubated for 16- to 18 h at 22° C. NS5B570n -BK is purified to homogeneity using a three step protocol including subsequent column chromatography on Ni-NTA, SP-Sepharose HP and Superdex 75 resins.
Each 50 μl enzymatic reaction contains 8:4 μg/mL poly A:oligo U16 (template:primer), 200 nM NS5B570n-BK enzyme, 2.1 μCi of tritiated UTP (Perkin Elmer catalog no. TRK -412; specific activity: 30 to 60 Ci/mmol; stock solution concentration from 7.5×10^−5 M to 20.6×10^−6 M), 1 μM ATP, CTP, and GTP, 40 mM Tris-HCl pH 8.0, 2 to 40 mM NaCl, 4 mM DTT (dithiothreitol), 4 mM MgCl2, and 5 μl of compound serial diluted in DMSO. Reaction mixtures are assembled in MADVN0B 96-well filter plates (Millipore Co.) and incubated for 2 h at 30° C. Reactions are stopped by addition of 10% (v/v) trichloroacetic acid and incubated for 40 min at 4° C. Reactions are filtered, washed with 6 reaction volumes of 10% (v/v) trichloroacetic acetic acid, 2 reaction volumes of 70% (v/v) ethanol, air dried, and 25 μl of scintillant (Microscint 20, Perkin-Elmer) is added to each reaction well.
The amount of light emitted from the scintillant is converted to counts per minute (CPM) on a Topcount® plate reader (Perkin-Elmer, Energy Range: Low, Efficiency Mode: Normal, Count Time: 1 min, Background Subtract: none, Cross talk reduction: Off).
Data is analyzed with GraphPad® Prism® and/or Microsoft® Excel®. The reaction in the absence of enzyme is used to determine the background signal, which is subtracted from the enzymatic reactions. Positive control reactions are performed in the absence of compound, from which the background corrected activity is set as 100% polymerase activity. All data is expressed as a percentage of the positive control. The compound concentration at which the enzyme-catalyzed rate of RNA synthesis is reduced by 50% (IC50) is calculated by fitting equation (i) to
[formula] the data, where “Y” corresponds to the relative enzyme activity (in %), “% Min” is the residual relative enzymatic activity at saturating compound concentration, “% Max” is the maximal relative enzymatic activity compared to positive control, X corresponds to the compound concentration, and “S” is the Hill coefficient (or slope). […]

[1] = test system: Renilla luciferase HCV replicon cells (2209-23); assay: Renilla luciferase Assay (HCV replicon); type: cell-based, HCV; human hepatoma Huh7 cells; conditions: 72 h; replicon cell line 2209-23, three days incubation; read-out: R. luciferase Activity IC50
HCV = conditions: cited from earlier work

Structure (SMILES) | melting point | IC50 (HCV NS5B570n-BK) | IC50 [1] | effect on serum levels of HCV-RNA (HCV; monotherapy / sole treatment) | patients in whom serum amino transferase levels are reduced to normal (HCV; monotherapy)
CC(C)(C)C1C(O)=C(C2=NS(=O)(=O)c3c(O)cccc32)C(=O)N1Cc1ccc(F)cc1 (stereo not shown) [II-6, 5-tert-Butyl-1-(4-fluoro-benzyl)-4-hydroxy-3-(7-hydroxy-1,1-dioxo-1H-1λ^6-benzo[d]isothiazol-3-yl)-1,5-dihydro-pyrrol-2-one] | > 250 °C | 52 nM | 3260 nM | – | –
Cc1cc(CN2C(=O)C(C3=NS(=O)(=O)c4ccccc43)=C(O)[C@@H]2C(C)(C)C)ccc1F [II-15, (S)-5-tert-Butyl-3-(1,1-dioxo-1H-1λ^6-benzo[d]isothiazol-3-yl)-1-(4-fluoro-3-methyl-benzyl)-4-hydroxy-1,5-dihydro-pyrrol-2-one] | 105 to 111 °C | 138 nM | 125 nM | – | –
CC(C)(C)[C@H]1C(O)=C(C2=NS(=O)(=O)c3c(CNS(C)(=O)=O)cccc32)C(=O)N1Cc1ccc(F)cc1 [II-23, N-{3-[(S)-5-tert-Butyl-1-(4-fluoro-benzyl)-4-hydroxy-2-oxo-2,5-dihydro-1H-pyrrol-3-yl]-1,1-dioxo-1H-1λ^6-benzo[d]isothiazol-7-ylmethyl}-methanesulfonamide] | 105 to 128 °C | 76 nM | 56 nM | – | –
CC(C)(C)[C@H]1C(O)=C(C2=NS(=O)(=O)c3ccccc32)C(=O)N1Cc1ccc(F)c(Cl)c1 [II-31, (S)-5-tert-Butyl-1-(3-chloro-4-fluoro-benzyl)-3-(1,1-dioxo-1H-1λ^6-benzo[d]isothiazol-3-yl)-4-hydroxy-1,5-dihydro-pyrrol-2-one] | 81 to 96 °C | 208 nM | 288 nM | – | –
CN(Cc1cccc2c1S(=O)(=O)N=C2C1=C(O)C(C(C)(C)C)N(Cc2ccc(F)cc2)C1=O)S(C)(=O)=O (stereo not shown) [II-35, N-{3-[5-tert-Butyl-1-(4-fluoro-benzyl)-4-hydroxy-2-oxo-2,5-dihydro-1H-pyrrol-3-yl]-1,1-dioxo-1H-1λ^6-benzo[d]isothiazol-7-ylmethyl}-N-methyl-methanesulfonamide] | 115 to 125 °C | 154 nM | 108 nM | – | –
Cc1cc(CN2C(=O)C(C3=NS(=O)(=O)c4c(CN(C)S(C)(=O)=O)cccc43)=C(O)[C@@H]2C(C)(C)C)ccc1F [II-77, N-{3-[(S)-5-tert-Butyl-1-(4-fluoro-3-methyl-benzyl)-4-hydroxy-2-oxo-2,5-dihydro-1H-pyrrol-3-yl]-1,1-dioxo-1H-1λ^6-benzo[d]isothiazol-7-ylmethyl}-N-methyl-methanesulfonamide] | – | – | 129 nM | – | –
CC(C)(C)[C@H]1C(O)=C(C2=NS(=O)(=O)c3c(OCS(C)(=O)=O)cccc32)C(=O)N1Cc1ccc(F)cc1 [II-81, (S)-5-tert-Butyl-1-(4-fluoro-benzyl)-4-hydroxy-3-(7-methanesulfonylmethoxy-1,1-dioxo-1H-1λ^6-benzo[d]isothiazol-3-yl)-1,5-dihydro-pyrrol-2-one] | 143 to 151 °C | – | 235 nM | – | –
CC(C)(C)[C@H]1C(O)=C(C2=NS(=O)(=O)c3c(CNS(=O)(=O)N4CCNCC4)cccc32)C(=O)N1Cc1ccc(F)cc1.O=C(O)C(F)(F)F [II-91, Piperazine-1-sulfonic acid {3-[(S)-5-tert-butyl-1-(4-fluoro-benzyl)-4-hydroxy-2-oxo-2,5-dihydro-1H-pyrrol-3-yl]-1,1-dioxo-1H-1λ^6-benzo[d]isothiazol-7-ylmethyl}-amide; compound with trifluoro-acetic acid] | 95 to 115 °C | – | 143 nM | – | –
NC(=O)c1ncn([C@@H]2O[C@H](CO)[C@@H](O)[C@H]2O)n1 [ribavirin, 1-((2R,3R,4S,5R)-3,4-dihydroxy-5-hydroxymethyl-tetrahydro-furan-2-yl)-1H-[1,2,4]triazole-3-carboxylic acid amide] | – | – | – | does not lower serum levels of HCV-RNA | 40%
